Measurements from ChEMBL document CHEMBL3822388, “In vivo phenotypic drug discovery: applying a behavioral assay to the discovery and optimization of novel antipsychotic agents” (Medchemcomm, 2016).
Activity calls are given as the source filed them. The rule behind the calls is not given here.

Legend:
[1] = test system: Mus musculus; experiment: Antipsychotic activity in mouse at 30 mg/kg, ip administered 15 mins prior to testing by SmartCube automated system based method relative to standard compound; type: functional
[2] = molecular target: D(2) dopamine receptor (Homo sapiens) (UniProt P14416); experiment: Displacement of [3H]methyl-spiperone from human recombinant D2 receptor expressed in HEK293 cells at 30 uM after 60 mins by scintillation counting analysis; type: cell-based
D(2) dopamine receptor (Homo sapiens), sequence (P14416 whole entry): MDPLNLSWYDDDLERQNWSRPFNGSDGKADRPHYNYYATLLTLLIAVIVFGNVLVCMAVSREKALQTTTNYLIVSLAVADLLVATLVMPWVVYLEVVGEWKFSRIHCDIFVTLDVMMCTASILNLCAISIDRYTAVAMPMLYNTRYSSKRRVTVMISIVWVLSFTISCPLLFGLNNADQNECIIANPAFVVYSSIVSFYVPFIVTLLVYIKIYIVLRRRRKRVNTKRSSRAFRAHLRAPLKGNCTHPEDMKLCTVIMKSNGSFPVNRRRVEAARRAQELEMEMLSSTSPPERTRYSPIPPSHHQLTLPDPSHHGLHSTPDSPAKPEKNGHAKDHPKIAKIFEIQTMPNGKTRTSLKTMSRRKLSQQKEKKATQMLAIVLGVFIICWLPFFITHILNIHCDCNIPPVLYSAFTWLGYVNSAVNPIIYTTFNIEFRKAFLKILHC

[3] = test system: Mus musculus; experiment: Antipsychotic activity in ip dosed mouse administered 15 mins prior to testing by SmartCube automated system based method; type: functional; details: Mus musculus, ip; read-out: MED
[4] = molecular target: Cytochrome P450 3A4 (Homo sapiens, UniProt P08684); experiment: Inhibition of CYP3A4 in human liver microsomes assessed as reduction in midazolam 1-hydroxylation/testosterone 6beta-hydroxylation by LC-MS/MS analysis; type: ADME
Cytochrome P450 3A4, sequence (P08684 whole entry): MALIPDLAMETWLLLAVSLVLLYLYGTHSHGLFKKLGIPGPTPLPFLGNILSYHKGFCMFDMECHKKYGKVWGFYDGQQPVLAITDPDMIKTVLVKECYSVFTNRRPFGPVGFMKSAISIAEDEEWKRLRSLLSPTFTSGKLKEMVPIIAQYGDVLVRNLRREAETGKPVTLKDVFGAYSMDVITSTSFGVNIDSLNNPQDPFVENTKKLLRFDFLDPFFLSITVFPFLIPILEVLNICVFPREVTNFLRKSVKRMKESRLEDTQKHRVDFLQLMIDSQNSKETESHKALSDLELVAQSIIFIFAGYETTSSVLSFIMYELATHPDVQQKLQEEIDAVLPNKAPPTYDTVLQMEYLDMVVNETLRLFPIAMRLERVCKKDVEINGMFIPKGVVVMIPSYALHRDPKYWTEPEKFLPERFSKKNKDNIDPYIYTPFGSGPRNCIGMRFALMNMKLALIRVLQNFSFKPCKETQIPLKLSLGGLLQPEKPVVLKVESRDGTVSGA

[5] = Half life in mouse liver microsomes at 3 uM in presence of NADPH by LC-MS/MS analysis; type: ADME
[6] = molecular target: Cytochrome P450 2C19 (Homo sapiens, UniProt P33261); experiment: Inhibition of CYP2C19 in human liver microsomes assessed as reduction in S-mephenytoin 4-hydroxylation by LC-MS/MS analysis; type: ADME
Cytochrome P450 2C19, sequence (P33261 whole entry): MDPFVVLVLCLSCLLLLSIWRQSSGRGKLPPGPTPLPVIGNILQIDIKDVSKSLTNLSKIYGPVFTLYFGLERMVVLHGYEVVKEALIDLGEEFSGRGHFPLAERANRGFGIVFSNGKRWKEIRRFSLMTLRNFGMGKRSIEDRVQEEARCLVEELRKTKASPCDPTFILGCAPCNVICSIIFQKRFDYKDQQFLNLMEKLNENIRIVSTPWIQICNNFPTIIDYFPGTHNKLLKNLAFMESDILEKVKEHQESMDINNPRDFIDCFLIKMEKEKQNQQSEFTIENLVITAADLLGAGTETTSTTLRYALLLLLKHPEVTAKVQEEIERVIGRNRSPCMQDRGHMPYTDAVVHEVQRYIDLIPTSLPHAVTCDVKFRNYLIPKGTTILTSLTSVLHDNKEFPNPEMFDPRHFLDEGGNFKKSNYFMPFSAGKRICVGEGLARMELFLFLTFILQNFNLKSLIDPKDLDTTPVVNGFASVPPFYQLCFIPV

[7] = test system: Mus musculus; experiment: Antipsychotic activity in mouse at 30 mg/kg, ip administered 15 mins prior to testing by SmartCube automated system based method relative to vehicle; type: functional
[8] = molecular target: Cytochrome P450 2C9 (Homo sapiens, UniProt P11712); experiment: Inhibition of CYP2C9 in human liver microsomes assessed as reduction in tolbutamide 4-hydroxylation by LC-MS/MS analysis; type: ADME
Cytochrome P450 2C9, sequence (P11712 whole entry): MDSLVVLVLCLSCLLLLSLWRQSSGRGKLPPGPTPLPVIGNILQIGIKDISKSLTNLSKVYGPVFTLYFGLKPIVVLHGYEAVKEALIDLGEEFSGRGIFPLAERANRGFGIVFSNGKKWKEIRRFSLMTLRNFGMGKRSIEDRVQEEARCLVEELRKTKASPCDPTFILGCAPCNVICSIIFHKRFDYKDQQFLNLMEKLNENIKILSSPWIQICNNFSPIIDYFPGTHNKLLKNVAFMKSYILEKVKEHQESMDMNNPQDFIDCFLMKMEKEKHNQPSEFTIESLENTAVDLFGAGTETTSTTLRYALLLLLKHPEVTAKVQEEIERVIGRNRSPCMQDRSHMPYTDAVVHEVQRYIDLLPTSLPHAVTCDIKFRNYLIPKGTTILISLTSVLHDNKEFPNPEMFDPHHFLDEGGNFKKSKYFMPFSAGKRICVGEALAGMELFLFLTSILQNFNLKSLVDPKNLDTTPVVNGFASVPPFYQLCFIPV

[9] = molecular target: D(2) dopamine receptor (Homo sapiens) (UniProt P14416); experiment: Displacement of [3H]methyl-spiperone from human recombinant D2 receptor expressed in HEK293 cells at 10 uM after 60 mins by scintillation counting analysis; type: cell-based
[10] = molecular target: Cytochrome P450 2D6 (Homo sapiens, UniProt P10635); experiment: Inhibition of CYP2D6 in human liver microsomes assessed as reduction in dextromethorphan o-demethylation by LC-MS/MS analysis; type: ADME
Cytochrome P450 2D6, sequence (P10635 whole entry): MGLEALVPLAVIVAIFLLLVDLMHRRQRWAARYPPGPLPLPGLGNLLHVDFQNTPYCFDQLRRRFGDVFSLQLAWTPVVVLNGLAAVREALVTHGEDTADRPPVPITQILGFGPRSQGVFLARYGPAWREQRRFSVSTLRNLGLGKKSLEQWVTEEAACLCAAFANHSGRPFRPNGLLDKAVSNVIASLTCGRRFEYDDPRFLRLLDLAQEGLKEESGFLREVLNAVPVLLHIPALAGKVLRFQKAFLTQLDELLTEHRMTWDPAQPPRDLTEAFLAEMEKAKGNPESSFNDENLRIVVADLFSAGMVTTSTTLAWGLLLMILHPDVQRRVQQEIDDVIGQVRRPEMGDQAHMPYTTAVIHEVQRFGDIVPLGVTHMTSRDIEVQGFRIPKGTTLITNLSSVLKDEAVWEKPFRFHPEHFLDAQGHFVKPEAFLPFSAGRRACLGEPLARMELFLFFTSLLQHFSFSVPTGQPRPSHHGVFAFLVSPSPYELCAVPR

[11] = molecular target: Voltage-gated inwardly rectifying potassium channel KCNH2 (Homo sapiens, UniProt Q12809); experiment: Inhibition of human ERG
Voltage-gated inwardly rectifying potassium channel KCNH2, sequence (Q12809 whole entry): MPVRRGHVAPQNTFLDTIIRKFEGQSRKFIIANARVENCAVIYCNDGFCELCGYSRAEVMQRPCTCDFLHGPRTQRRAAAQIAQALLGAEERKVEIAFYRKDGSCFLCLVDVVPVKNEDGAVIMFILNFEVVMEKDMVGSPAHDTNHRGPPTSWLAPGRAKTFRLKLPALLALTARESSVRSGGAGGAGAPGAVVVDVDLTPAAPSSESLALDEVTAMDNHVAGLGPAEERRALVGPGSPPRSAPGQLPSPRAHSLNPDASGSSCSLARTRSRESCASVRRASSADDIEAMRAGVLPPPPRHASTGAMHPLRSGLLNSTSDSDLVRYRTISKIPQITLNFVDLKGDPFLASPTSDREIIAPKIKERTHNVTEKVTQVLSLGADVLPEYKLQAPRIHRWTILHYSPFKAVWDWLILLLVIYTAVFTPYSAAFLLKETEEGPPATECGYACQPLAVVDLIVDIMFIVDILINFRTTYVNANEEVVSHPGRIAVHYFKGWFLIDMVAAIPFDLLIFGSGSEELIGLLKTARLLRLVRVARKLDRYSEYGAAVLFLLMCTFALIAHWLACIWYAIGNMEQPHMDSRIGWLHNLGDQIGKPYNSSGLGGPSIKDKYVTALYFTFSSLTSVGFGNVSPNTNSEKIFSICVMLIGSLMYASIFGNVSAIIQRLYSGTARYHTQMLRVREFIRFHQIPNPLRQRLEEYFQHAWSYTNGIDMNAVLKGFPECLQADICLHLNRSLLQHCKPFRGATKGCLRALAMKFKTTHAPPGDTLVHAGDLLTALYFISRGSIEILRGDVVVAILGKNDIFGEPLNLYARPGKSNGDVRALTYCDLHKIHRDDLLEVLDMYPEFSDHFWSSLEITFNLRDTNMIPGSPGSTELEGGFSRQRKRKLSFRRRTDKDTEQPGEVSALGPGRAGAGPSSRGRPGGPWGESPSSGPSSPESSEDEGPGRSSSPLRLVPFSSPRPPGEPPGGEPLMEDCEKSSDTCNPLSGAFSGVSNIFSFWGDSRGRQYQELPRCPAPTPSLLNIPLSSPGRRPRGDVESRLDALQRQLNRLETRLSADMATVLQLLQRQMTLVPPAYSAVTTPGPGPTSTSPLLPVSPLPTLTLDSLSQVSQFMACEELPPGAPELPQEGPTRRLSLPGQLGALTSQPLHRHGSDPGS

[12] = Protein binding in rat plasma at 5 uM by LC-MS/MS based equilibrium dialysis method; type: ADME, cell-free; details: read-out: PPB (converted)
[13] = molecular target: CYP1A (Homo sapiens, UniProt P04798+P05177); experiment: Inhibition of CYP1A in human liver microsomes assessed as reduction in ethoxyresorufin o-deethylation by fluorescence assay; details: probe ethoxyresorufin (O-deethylation)
[14] = Half life in rat liver microsomes at 3 uM in presence of NADPH by LC-MS/MS analysis; type: ADME
[15] = Protein binding in mouse plasma at 5 uM by LC-MS/MS based equilibrium dialysis method; type: ADME, cell-free; details: read-out: PPB (converted)
[16] = Half life in human liver microsomes at 3 uM in presence of NADPH by LC-MS/MS analysis; type: ADME
[17] = Fraction unbound in mouse plasma at 5 uM by LC-MS/MS based equilibrium dialysis method; type: ADME, cell-free
[18] = test system: Mus musculus; experiment: Antipsychotic activity in mouse at 10 mg/kg, ip administered 15 mins prior to testing by SmartCube automated system based method relative to standard compound; type: functional, organism-based
[19] = test system: Mus musculus; experiment: Antipsychotic-like activity in C57Bl/6J mouse model of schizophrenia assessed as reversal of phencyclidine-induced locomotor activity at 3 to 30 mg/kg, po dosed 30 mins before administration of PCP measured for 60 mins by open field test; type: functional, organism-based
[20] = test system: Mus musculus; experiment: Effect on basal locomotor activity in C57Bl/6J mouse at 3 mg/kg, po; type: ADME, organism-based; details: in vivo
[21] = molecular target: T1, 5-hydroxytryptamine receptor 2A (Homo sapiens, UniProt P28223); experiment: Displacement of [3H]ketanserin from human recombinant 5-HT2A receptor expressed in HEK293 cells at 10 uM after 60 mins by scintillation counting analysis; type: cell-based
T1 sequence (P28223 whole entry): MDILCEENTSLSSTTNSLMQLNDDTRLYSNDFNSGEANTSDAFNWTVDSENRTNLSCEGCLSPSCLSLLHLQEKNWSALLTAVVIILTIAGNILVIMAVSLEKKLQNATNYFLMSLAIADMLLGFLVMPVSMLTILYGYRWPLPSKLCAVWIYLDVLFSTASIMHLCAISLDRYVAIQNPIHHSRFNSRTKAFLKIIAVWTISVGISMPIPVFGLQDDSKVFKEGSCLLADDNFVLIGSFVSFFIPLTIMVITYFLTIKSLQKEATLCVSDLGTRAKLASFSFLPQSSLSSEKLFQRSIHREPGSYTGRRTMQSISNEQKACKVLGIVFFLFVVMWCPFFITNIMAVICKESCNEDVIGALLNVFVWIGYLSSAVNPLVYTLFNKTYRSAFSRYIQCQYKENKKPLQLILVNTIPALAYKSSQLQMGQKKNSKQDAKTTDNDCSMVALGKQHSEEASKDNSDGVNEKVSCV

[22] = Chemical stability of the compound in 20 mM NH4Ac buffer solution at pH 7.1 after 96 hrs by HPLC analysis; type: physicochemical; details: pH 7.1, 96 h
[23] = molecular target: D(1A) dopamine receptor (Homo sapiens) (UniProt P21728); experiment: Displacement of [3H]SCH 23390 from human recombinant D1 receptor expressed in CHO cells at 10 uM after 60 mins by scintillation counting analysis; type: cell-based
[24] = molecular target: 5-hydroxytryptamine receptor 7 (Homo sapiens) (UniProt P34969); experiment: Displacement of [3H]LSD from human recombinant 5-HT7 receptor expressed in CHO cells at 10 uM after 120 mins by scintillation counting analysis; type: cell-based
5-hydroxytryptamine receptor 7 (Homo sapiens), sequence (P34969 whole entry): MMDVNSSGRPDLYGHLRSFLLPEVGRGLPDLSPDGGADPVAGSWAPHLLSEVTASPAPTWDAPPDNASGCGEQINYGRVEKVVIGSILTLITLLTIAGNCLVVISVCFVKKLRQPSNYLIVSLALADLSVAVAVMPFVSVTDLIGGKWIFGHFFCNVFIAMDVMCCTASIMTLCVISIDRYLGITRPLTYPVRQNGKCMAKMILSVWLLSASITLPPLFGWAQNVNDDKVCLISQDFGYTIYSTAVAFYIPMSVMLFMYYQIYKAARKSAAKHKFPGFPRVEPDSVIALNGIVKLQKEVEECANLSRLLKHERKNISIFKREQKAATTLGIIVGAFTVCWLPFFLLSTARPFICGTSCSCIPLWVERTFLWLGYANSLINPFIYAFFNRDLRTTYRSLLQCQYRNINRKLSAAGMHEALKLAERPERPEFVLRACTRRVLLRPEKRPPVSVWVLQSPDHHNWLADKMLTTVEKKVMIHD

[25] = molecular target: Sodium-dependent serotonin transporter (Homo sapiens) (UniProt P31645); experiment: Displacement of [3H]imipramine from human recombinant 5-HT transporter expressed in CHO cells at 10 uM after 60 mins by scintillation counting analysis; type: cell-based
[26] = molecular target: 5-hydroxytryptamine receptor 6 (Homo sapiens) (UniProt P50406); experiment: Displacement of [3H]LSD from human recombinant 5-HT6 receptor expressed in CHO cells at 10 uM after 120 mins by scintillation counting analysis; type: cell-based
[27] = Solubility of the compound at pH 7.4; type: physicochemical; details: buffer
[28] = molecular target: Adrenergic receptor alpha-1 (Rattus norvegicus) (UniProt P15823+P23944+P43140); experiment: Displacement of [3H]prazosin from rat cerebral cortex adrenergic alpha1 receptor at 10 uM after 60 mins by scintillation counting analysis; type: tissue-based
[29] = test system: Liver microsome; experiment: Drug metabolism in human liver microsomes assessed as formation of 4-(2-methylbenzo[b]thiophen-3-yl)pyrimidineat 3 uM in presence of NADPH by LC-MS/MS analysis; type: ADME
[30] = Drug metabolism in mouse liver microsomes assessed as formation of 4-(2-methylbenzo[b]thiophen-3-yl)pyrimidineat 3 uM in presence of NADPH by LC-MS/MS analysis; type: ADME
[31] = test system: Mus musculus; experiment: Antipsychotic activity in C57Bl/6J mouse model of schizophrenia assessed as increase in prepulse inhibition of acoustic startle at 3 to 10 mg/kg, po administered 30 mins prior to testing relative to vehicle-treated control; type: functional, organism-based
[32] = molecular target: 5-hydroxytryptamine receptor 3A (Homo sapiens) (UniProt P46098); experiment: Displacement of [3H]BRL 43694 from human recombinant 5-HT3 receptor expressed in CHO cells at 10 uM after 120 mins by scintillation counting analysis; type: cell-based
[33] = test system: Mus musculus; experiment: Effect on basal locomotor activity in C57Bl/6J mouse at 10 to 30 mg/kg, po; type: ADME, organism-based; details: in vivo
[34] = molecular target: Adrenergic receptor alpha-2 (Rattus norvegicus) (UniProt P22086+P19328+P22909); experiment: Displacement of [3H]RX 821002 from rat cerebral cortex adrenergic alpha2 receptor at 10 uM after 60 mins by scintillation counting analysis; type: tissue-based
[35] = molecular target: 5-hydroxytryptamine receptor 2B (Homo sapiens) (UniProt P41595); experiment: Displacement of [3H]mesulergine from human recombinant 5-HT2B receptor expressed in CHO cells at 10 uM after 60 mins by scintillation counting analysis; type: cell-based
[36] = molecular target: T1, 5-hydroxytryptamine receptor 2A; experiment: Antagonist activity at 5HT2A (unknown origin)
[37] = molecular target: Sodium-dependent dopamine transporter (Homo sapiens) (UniProt Q01959); experiment: Displacement of [3H]BTCP from human recombinant dopamine transporter expressed in CHO cells at 10 uM after 120 mins by scintillation counting analysis; type: cell-based
[38] = molecular target: Sodium-dependent noradrenaline transporter (Homo sapiens) (UniProt P23975); experiment: Displacement of [3H]nisoxetine from human recombinant norepinephrine transporter expressed in CHO cells at 10 uM after 120 mins by scintillation counting analysis; type: cell-based
[39] = Fraction unbound in human plasma at 5 uM by LC-MS/MS based equilibrium dialysis method; type: ADME, cell-free
[40] = molecular target: Histamine H1 receptor (Homo sapiens) (UniProt P35367); experiment: Displacement of [3H]pyrilamine from human recombinant H1 receptor expressed in HEK293 cells at 10 uM after 60 mins by scintillation counting analysis; type: cell-based
Histamine H1 receptor (Homo sapiens), sequence (P35367 whole entry): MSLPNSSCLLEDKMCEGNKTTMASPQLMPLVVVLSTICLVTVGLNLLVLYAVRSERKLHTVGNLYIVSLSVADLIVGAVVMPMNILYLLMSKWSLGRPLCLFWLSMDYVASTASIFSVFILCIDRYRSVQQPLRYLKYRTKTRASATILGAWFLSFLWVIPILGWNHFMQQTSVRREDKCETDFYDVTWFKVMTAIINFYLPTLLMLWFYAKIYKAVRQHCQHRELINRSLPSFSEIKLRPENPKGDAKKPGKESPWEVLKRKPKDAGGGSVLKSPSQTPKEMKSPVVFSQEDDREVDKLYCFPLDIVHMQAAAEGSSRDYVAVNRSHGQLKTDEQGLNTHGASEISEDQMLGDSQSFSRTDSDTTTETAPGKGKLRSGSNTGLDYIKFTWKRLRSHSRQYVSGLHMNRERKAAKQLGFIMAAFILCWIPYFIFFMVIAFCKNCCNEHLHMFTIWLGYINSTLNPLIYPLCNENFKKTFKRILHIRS

[41] = Chemical stability of the compound in 0.01 M HCl at pH 2 after 96 hrs by HPLC analysis; type: physicochemical; details: buffer, pH 2, 96 h
[42] = test system: Mus musculus; experiment: Antipsychotic activity in mouse at 3 to 30 mg/kg, ip dosed 15 mins prior to testing by SmartCube automated system based method relative to standard compound; type: functional, organism-based

In the case of Cc1csc(C2C=CN=CN2)c1C (stereo not given), the Activity [1] is reported as “Active” and the inhibition [2] is reported as 18%.

In the case of CC1=NC=CC(c2c(C)sc3ccccc23)N1.Cl (stereo not given), the minimal effective dose [3] is reported as 30 mg/kg.

For CC1=CN=CNC1c1sc2ccccc2c1C (stereo not given), the Activity [1] was “Active”.

In the case of Cc1sc2cccc(F)c2c1C1C=CN=CN1.Cl (stereo not given), the minimal effective dose [3] is reported as 3 mg/kg.

For CC1=CN=CNC1c1c(C)sc2ccccc12.Cl (stereo not given), the minimal effective dose [3] was 30 mg/kg.

Cc1sc2ccccc2c1C1NC(N)=NC=C1Cl.Cl (stereo not given) gave a minimal effective dose [3] of 30 mg/kg.

Cl.Fc1sc2ccccc2c1C1NC=NC=C1Cl (stereo not given) showed a minimal effective dose [3] of 30 mg/kg.

For CCc1ccc(C2C=CN=CN2)s1.Cl (stereo not given), the minimal effective dose [3] was 10 mg/kg.

Cc1cc(C2C=CN=CN2)c(C)s1.Cl (racemic) showed an IC50 [4] of 19.8 µM, a half-life at 3 µM [5] of 2.58 h and an IC50 [6] of 12.7 µM. For the same molecule, the Activity [7] was >95%, the IC50 [8] was > 25 µM and the Activity [1] was 40%. For the same molecule, the inhibition [9] was “inactive”, the IC50 [10] was 6.3 µM and the IC50 ([11]; read-out: IC50) was > 25 µM. For the same molecule, the fraction unbound at 5 µM [12] was 0.3, the IC50 [13] was > 25 µM and the half-life at 3 µM [14] was 0.65 h. The fraction unbound at 5 µM [15] was 0.24 and the half-life at 3 µM [16] was 0.8 h.

In the case of Cc1sc2ccccc2c1[C@@H]1C=CN=CN1, the fraction unbound at 5 µM [17] is reported as 0.18, the Activity [18] is reported as “Active” and the Activity [19] is reported as “Active”. For the same molecule, the IC50 [4] was 11 µM, the Activity [20] was “Non-toxic” and the half-life at 3 µM [5] was 4.03 h. For the same molecule, the IC50 [6] was 25 µM, the IC50 [8] was 6.9 µM and the inhibition [21] was 99%. For the same molecule, the Stability [22] was “Stable”, the inhibition [23] was 77% and the Activity [1] was “Active”. It also gave an inhibition [24] of 94%, an inhibition [9] of 0% and an inhibition [25] of 94%. The inhibition [26] was 61%, the solubility [27] was > 100 µg/mL and the inhibition [28] was 88%. The Drug metabolism [29] was “metabolite_notdetected”, the IC50 [10] was 3.1 µM and the Drug metabolism [30] was “metabolite_notdetected”. For the same molecule, the Activity [31] was “Active”, the inhibition [32] was 64% and the IC50 ([11]; human) was > 25 µM. The Activity [33] was “Toxic”, the inhibition [34] was 97% and the inhibition [35] was 81%. For the same molecule, the IC50 [13] was 6.9 µM, the IC50 [36] was 0.356 µM and the inhibition [37] was 78%. It also gave an inhibition [38] of 51%, a half-life at 3 µM [14] of 0.483 h and a fraction unbound at 5 µM [39] of 0.3. The half-life at 3 µM [16] was 2.28 h, the inhibition [40] was 86% and the Stability [41] was “Stable”.

Work on Cc1sc2c(Cl)cccc2c1C1C=CN=CN1.Cl (stereo not given) yielded a minimal effective dose [3] of 30 mg/kg.

In the case of Cc1csc(C2C=CN=CN2)c1C (stereo in doubt; 12a), the Activity [42] is reported as “Active”.

For Cc1c(F)sc(C2C=CN=CN2)c1C.Cl (stereo not given), the minimal effective dose [3] was 10 mg/kg.

With Cc1sc2c(c1C1C=CN=CN1)CCCC2.Cl (stereo not given) the minimal effective dose [3] was 10 mg/kg.

With Cc1sc2ccc(Cl)cc2c1C1C=CN=CN1.Cl (stereo not given) the minimal effective dose [3] was 3 mg/kg.

In the case of CC1=NC=C(Cl)C(c2sc3ccccc3c2C)N1 (stereo not given), the Activity [1] is reported as “Active”.
